row,Compound,melting point
1,N#Cc1nccnc1Oc1ccc2c(C#N)c(-c3ccc(NS(=O)(=O)NCC4CC4)cc3)n(C3CC3)c2c1 [Compound 3211],189 to 191 °C
2,CC(C)Nc1ccc(-c2c(C#N)c3ccc(Oc4nccnc4C#N)cc3n2C2CC2)cc1 [Compound 3212],224 to 226 °C
3,CC(C)Nc1ccc(-c2c(C#N)c3ccc(Oc4ncccc4C#N)cc3n2C2CC2)cc1 [Compound 3213],195 to 197 °C
4,CC(C)n1c(-c2ccc(N3CCCCS3(=O)=O)cc2)c(C#N)c2ccc(N3CCOCC3)cc21 [Compound 3215],260 to 271 °C
5,N#Cc1c(-c2ccc(N3CCCCS3(=O)=O)cc2)n(C2CC2)c2cc(Oc3ncccn3)ccc12 [Compound 3216],251 to 256 °C
6,N#Cc1c(-c2ccc(N3CCCCS3(=O)=O)cc2)n(C2CCC2)c2cc(Oc3ncccn3)ccc12 [Compound 3217],212 to 223 °C
7,N#Cc1c(-c2ccc(N3CCCCS3(=O)=O)cc2)n(C2CCC2)c2cc(OC3CCOCC3)ccc12 [Compound 3218],180 to 187 °C
8,N#Cc1c(-c2ccc(N3CCCCS3(=O)=O)cc2)n(C2CCC2)c2cc(Oc3cnccn3)ccc12 [Compound 3220],187 to 196 °C
9,CCOc1ccc2c(C#N)c(-c3ccc4c(c3)CCC(=O)N4)n(C3CCC3)c2c1 [Compound 3221],249 to 250 °C
10,CC1CCc2cc(-c3c(C#N)c4ccc(Oc5ncccn5)cc4n3C3CCC3)ccc2NC1=O (stereo not shown) [Compound 3222],233 to 235 °C
11,CCn1c(-c2ccc(N3CCCCCC3=O)cc2)c(C#N)c2ccc(OC(C)C)cc21 [Compound 3223],250 to 251 °C
12,CCCS(=O)(=O)Nc1ccc(-c2c(C#N)c3ccc(Oc4nccnc4C#N)cc3n2CC2CC2)cc1 [Compound 3224],178 to 180 °C
13,CC(C)CS(=O)(=O)Nc1ccc(-c2c(C#N)c3ccc(Oc4nccnc4C#N)cc3n2CC2CC2)cc1 [Compound 3225],194 to 197 °C
14,CC(C)NC(=O)N(C(=O)NC(C)C)c1ccc(-c2c(C#N)c3ccc(-c4ccccn4)cc3n2C2CCC2)cc1 [Compound 3226],193 to 194 °C
15,CCn1c(-c2ccc3c(c2)CCC(=O)N3)c(C#N)c2ccc(OC(C)C)cc21 [Compound 3227],148 to 150 °C
16,CC(OC(=O)Nc1ccc(-c2c(C#N)c3ccc(OCCNS(C)(=O)=O)cc3n2C2CCC2)cc1)C1CC1 (stereo not shown) [Compound 3228],92 to 95 °C
17,CCS(=O)(=O)NCCOc1ccc2c(C#N)c(-c3ccc(NC(=O)OC(C)C4CC4)cc3)n(C3CCC3)c2c1 (stereo not shown) [Compound 3229],88 to 91 °C

row,Compound,melting point
1,CCn1c(-c2ccc(NC(=O)OC(C)C)cc2)c(C#N)c2ccc(OC3CCS(=O)(=O)CC3)cc21 [Compound 3230],253 to 257 °C
2,CCn1c(-c2ccc(NC(=O)O[C@H](C)C3CC3)cc2)c(C#N)c2ccc(OC3CCS(=O)(=O)CC3)cc21 [Compound 3231],189 to 196 °C
3,CC(C)OC(=O)Nc1ccc(-c2c(C#N)c3ccc(OC4CCS(=O)(=O)CC4)cc3n2C2CC2)cc1 [Compound 3232],278 to 282 °C
4,C[C@@H](OC(=O)Nc1ccc(-c2c(C#N)c3ccc(OC4CCS(=O)(=O)CC4)cc3n2CC2CC2)cc1)C1CC1 [Compound 3233],193 to 198 °C
5,CC(C)n1c(-c2ccc(NC(=O)O[C@H](C)C3CC3)cc2)c(C#N)c2ccc(OC3CCS(=O)(=O)CC3)cc21 [Compound 3235],249 to 256 °C
6,CC(C)OC(=O)Nc1ccc(-c2c(C#N)c3ccc(OC4CCS(=O)(=O)CC4)cc3n2C(C)C)cc1 [Compound 3236],173 to 190 °C
7,N#Cc1nccnc1Oc1ccc2c(C#N)c(-c3ccc(NS(=O)(=O)CC4CCC4)cc3)n(CC3CC3)c2c1 [Compound 3238],205 to 208 °C
8,N#Cc1nccnc1Oc1ccc2c(C#N)c(-c3ccc(NS(=O)(=O)C4CC4)cc3)n(CC3CC3)c2c1 [Compound 3239],193 to 196 °C
9,N#Cc1c(-c2ccc(NCCCc3ccccc3)cc2)n(C2CCC2)c2cc(OCCF)ccc12 [Compound 3240],121 to 124 °C
10,N#Cc1c(-c2ccc(NCC3CCCCC3)cc2)n(C2CCC2)c2cc(OCCF)ccc12 [Compound 3241],169 to 173 °C
11,C[C@@H](OC(=O)Nc1ccc(-c2c(C#N)c3ccc(-c4ncccc4C#N)cc3n2C2CCC2)cc1)C1CC1 [Compound 3243],183 to 185 °C
12,CCCS(=O)(=O)Nc1ccc(-c2c(C#N)c3ccc(-c4ncccc4C#N)cc3n2C2CCC2)cc1 [Compound 3244],223 to 225 °C
13,C[C@@H](OC(=O)Nc1ccc(-c2c(C#N)c3ccc(OC4CCS(=O)(=O)CC4)cc3n2C2CCCC2)cc1)C1CC1 [Compound 3245],243 to 250 °C
14,CC(C)OC(=O)Nc1ccc(-c2c(C#N)c3ccc(OC4CCS(=O)(=O)CC4)cc3n2C2CCCC2)cc1 [Compound 3246],223 to 227 °C
15,C[C@@H](OC(=O)Nc1ccc(-c2c(C#N)c3ccc(-c4ncccc4[N+](=O)[O-])cc3n2C2CCC2)cc1)C1CC1 [Compound 3247],199 to 201 °C
16,CCCS(=O)(=O)Nc1ccc(-c2c(C#N)c3ccc(Oc4nccnc4C#N)cc3n2CC2CC2)c(C)c1 [Compound 3248],238 to 241 °C
17,CCCS(=O)(=O)Nc1ccc(-c2c(C#N)c3ccc(Oc4ncccc4C#N)cc3n2CC2CC2)c(C)c1 [Compound 3249],235 to 239 °C

# Next, values leading:
row,melting point,Compound
1,232 to 235 °C,CCCS(=O)(=O)Nc1ccc(-c2c(C#N)c3ccc(Oc4ncccc4C#N)cc3n2CC2CC2)cc1 [Compound 3250]
2,212 to 213 °C,N#Cc1c(-c2ccc(Nc3ncccn3)cc2)n(CC2CC2)c2cc(OCCF)ccc12 [Compound 3251]
3,223 to 224 °C,CCOc1ccc2c(C#N)c(-c3ccc(Nc4ncccn4)cc3)n(CC3CC3)c2c1 [Compound 3252]
4,214 to 215 °C,Cc1nccnc1Oc1ccc2c(c1)c(C#N)c(-c1ccc(NC(=O)O[C@H](C)C3CC3)cc1)n2C1CCC1 [Compound 3254]
5,209 to 211 °C,C[C@@H](OC(=O)Nc1ccc(-c2c(C#N)c3cc(Oc4nccnc4Cl)ccc3n2C2CCC2)cc1)C1CC1 [Compound 3255]
6,217 to 218 °C,C[C@@H](OC(=O)Nc1ccc(-c2c(C#N)c3cc(Oc4ncccc4C#N)ccc3n2C2CCC2)cc1)C1CC1 [Compound 3256]
7,205 to 208 °C,Cc1cccc(Oc2ccc3c(c2)c(C#N)c(-c2ccc(NC(=O)O[C@H](C)C4CC4)cc2)n3C2CCC2)n1 [Compound 3257]
8,250 to 252 °C,C[C@@H](OC(=O)Nc1ccc(-c2c(C#N)c3ccc(-c4cccc(N5CCCC5)n4)cc3n2C2CCC2)cc1)C1CC1 [Compound 3258]
9,203 to 208 °C,C[C@@H](OC(=O)Nc1ccc(-c2c(C#N)c3ccc(-c4cc(N(C)C)ccn4)cc3n2C2CCC2)cc1)C1CC1 [Compound 3259]
10,223 °C (dec.),C[C@@H](OC(=O)Nc1ccc(-c2c(C#N)c3ccc(Oc4nccnc4C#N)cc3n2C2CC2)cc1)C1CC1 [Compound 3262]
11,183 to 185 °C,C[C@@H](OC(=O)Nc1ccc(-c2c(C#N)c3ccc(Oc4ncccc4C#N)cc3n2C2CC2)cc1)C1CC1 [Compound 3263]
12,159 to 162 °C,C[C@@H](OC(=O)Nc1ccc(-c2c(C#N)c3ccc(OCCN4CCCC4=O)cc3n2C2CCC2)cc1)C1CC1 [Compound 3266]
13,181 to 212 °C,N#Cc1c(-c2ccc(NC(=O)OC3CCS(=O)(=O)CC3)cc2)n(C2CCC2)c2cc(Oc3ncccn3)ccc12 [Compound 3267]
14,223 to 225 °C,Cc1csc(Nc2ccc(-c3c(C#N)c4ccc(Oc5ncccn5)cc4n3C3CC3)cc2)n1 [Compound 3268]
15,240 to 246 °C,N#Cc1c(-c2ccc(NC(=O)OC3CCS(=O)(=O)CC3)cc2)n(C2CC2)c2cc(Oc3ncccn3)ccc12 [Compound 3269]
16,193 to 195 °C,Cc1csc(Nc2ccc(-c3c(C#N)c4ccc(Oc5ncccc5F)cc4n3C3CC3)cc2)n1 [Compound 3270]
17,80 to 83 °C,C[C@@H](OC(=O)Nc1ccc(-c2c(C#N)c3ccc(OCCN4C(=O)CCC4=O)cc3n2C2CCC2)cc1)C1CC1 [Compound 3271]
18,79 to 81 °C,C[C@@H](OC(=O)Nc1ccc(-c2c(C#N)c3ccc(OCCN4C(=O)CN(C)C4=O)cc3n2C2CCC2)cc1)C1CC1 [Compound 3272]
19,227 to 230 °C,CCCS(=O)(=O)Nc1ccc(-c2c(C#N)c3ccc(Oc4ncccc4C#N)cc3n2C2CCC2)c(C)c1 [Compound 3273]
20,222 to 225 °C,CCCS(=O)(=O)Nc1ccc(-c2c(C#N)c3ccc(Oc4nccnc4C#N)cc3n2C2CCC2)c(C)c1 [Compound 3274]
21,130 °C (dec.),C[C@H](NS(=O)(=O)Nc1ccc(-c2c(C#N)c3ccc(Oc4ncccc4C#N)cc3n2C2CCC2)cc1)C1CC1 [Compound 3275]
22,209 to 212 °C,C[C@H](NS(=O)(=O)Nc1ccc(-c2c(C#N)c3ccc(Oc4nccnc4C#N)cc3n2C2CCC2)cc1)C1CC1 [Compound 3276]
23,267 to 268.5 °C,CC(C)OC(=O)Nc1ccc(-c2c(C#N)c3ccc(-n4ccccc4=O)cc3n2C2CCC2)cc1 [Compound 3277]
24,181 to 182 °C,CC(C)OC(=O)Nc1ccc(-c2cc3ccc(Oc4nccnc4C#N)cc3n2CC2CC2)cc1 [Compound 3282]
25,145 to 147 °C,C[C@@H](OC(=O)Nc1ccc(-c2cc3ccc(Oc4nccnc4C#N)cc3n2CC2CC2)cc1)C1CC1 [Compound 3283]
26,99 to 101 °C,C[C@@H](OC(=O)Nc1ccc(-c2cc3ccc(Oc4nccnc4C#N)cc3n2CC2CC2)cc1)C(F)(F)F [Compound 3284]
27,233 to 235 °C,Cc1cc(Nc2ccc(-c3c(C#N)c4ccc(Oc5nccnc5C#N)cc4n3C3CCC3)cc2)n(C)n1 [Compound 3286]
28,166 to 168 °C,Cc1ccnc(Oc2ccc3c(C#N)c(-c4ccc(Nc5cc(C)nn5C)cc4)n(C4CCC4)c3c2)n1 [Compound 3287]
29,215 to 217 °C,CCCS(=O)(=O)Nc1ccc(-c2c(C#N)c3ccc(Oc4nccnc4C#N)cc3n2C2CCC2)cc1C [Compound 3288]
30,177 to 178 °C,Cc1cc(-c2c(C#N)c3ccc(Oc4nccnc4C#N)cc3n2C2CCC2)ccc1NS(=O)(=O)CC(C)C [Compound 3289]
